Laboratory results published in US20230248776A1, “OSTEOBLASTS DIFFERENTIATED FROM MESENCHYMAL STEM CELLS AND COMPOSITION FOR TREATING BONE DISEASE COMPRISING SAME” (CEFO Co., Ltd., priority 2020, published 2023).

Test system: umbilical cord-derived mesenchymal stem cells
Experiment: surfactant cytotoxicity and cell growth, CCK-8 in transwell
Type: cell-based
Experimental: The toxicity of poloxamer (poloxamer 407, p407), sodium methyl cocoyl taurate (DIAPON K-SF), polyoxyethylene sorbitan monolaurate (Tween 20) or methylprednisolone, which are known as representative biocompatible surfactants, was confirmed.
Specifically, in the upper chamber in a transwell including a three-dimensional porous membrane, the surfactant p407, DIAPON K-SF or Tween 20 was respectively treated at 0, 0.5 1, 5 or 15% (v/v) and coated for 2 hours in the same manner as in [Example 2], and then, the umbilical cord-derived mesenchymal stem cells obtained in [Example 1] were seeded at 20,000 cells/cm^2. The cell growth medium was placed in the lower chamber and cultured for 3 days. On days 1, 2 and 3, the CCK-8 (Cat. CK04, DOJINDO) solution was added, and after 3 hours of reaction in a 37° C. CO2 incubator, absorbance was measured at 450 nm to analyze cytotoxicity (FIG. 4) and the degree of cell growth (FIG. 5).
Further, in a transwell including a three-dimensional porous membrane, the surfactant p407, methylprednisolone or Tween 20 was treated at a concentration of 4 mM in the upper chamber, and after coating for 2 hours in the same manner as in [Example 2], the umbilical cord-derived mesenchymal stem cells obtained in [Example 1] were seeded at 20,000 cell/cm^2. The cell growth medium was placed in the lower chamber and cultured for 3 days. On days 1, 2 and 3, the CCK-8 solution was added, and after 3 hours of reaction in a 37° C. CO2 incubator, absorbance was measured at 450 nm to analyze cytotoxicity (FIG. 6) and the degree of cell growth (FIG. 7).

Compound	cell proliferation, CCK-8 day 1 to day 3 (surfactant 0, 0.5, 1, 5 or 15% (v/v) coating (FIG. 5))	cytotoxicity, CCK-8 day 1 (surfactant 0, 0.5, 1, 5 or 15% (v/v) coating, day 1 (FIG. 4))	cell proliferation, CCK-8 day 1 to day 3 (surfactant 4 mM coating (FIG. 7))	cytotoxicity, CCK-8 day 1 (surfactant 4 mM coating, day 1 (FIG. 6))
sodium methyl cocoyl taurate [DIAPON K-SF]	cells did not proliferate	toxic to cells		
C[C@H]1C[C@@H]2[C@H]([C@@H](O)C[C@@]3(C)[C@H]2CC[C@]3(O)C(=O)CO)[C@@]2(C)C=CC(=O)C=C12 [methylprednisolone]			cells did not proliferate	toxic to cells
